# From PMC6421539, “Discovery of Soft-Drug Topical Tool Modulators of Sphingosine-1-phosphate Receptor 1 (S1PR1)” (ACS Medicinal Chemistry Letters, 2019)
# “Also recorded” adds a separate entry of the source. Read-outs that look alike come from different tables or passages of the source.
# Columns and labels:
# [1] = Chemical stability in DMSO solution; type: physicochemical; conditions: for stability (% decrease in purity): Table 2, stored in DMSO solution for 28 days; for stability (% decrease in purity) / stability (% decrease): n = 1; for isomerization / hydrolysis / chemical instability in DMSO solution (in words): 28 days; for stability (% decrease): Table 3, % loss in purity when stored in DMSO solution for 28 days
# Text: Although several compounds shown in Table 2 satisfy the rapid clearance requirements of a soft drug and retain primary activity, none were suitable for progression into in vivo studies due to chemical stability liabilities. […] The instability in solution represented a major development hurdle as topical drugs are usually stored in solution or suspensions (cream, ointment, paste, lotion, or gels), rather than in solid form, as is the case for oral drugs. We turned our attention to identifying the impurity and preventing its formation.
# Decomposition studies used ^1H NMR to monitor the increase in the acetic acid methyl group peak over 28 days (see Supporting Information). […] However, the chemical stability was poor when heteroatoms were alpha to the carbonyl of the acetate group 10d,e, and these compound degraded on standing within 24 h, preventing full characterization.
# [2] = CHI logD by reverse-phase HPLC; type: physicochemical; conditions: compared to 4a
# [3] = Human liver hepatocyte stability, intrinsic clearance; type: in vitro ADME
# Procedure: the exponential decay and consequently the rate constant (k) from the ratio of peak area of test compound to internal standard at each timepoint. The rate of intrinsic clearance (CLi) of each test compound was then calculated using the following calculation:
# CLi (mL/min/g liver) = k x V x Microsomal protein yield
# Where V (mL/mg protein) is the incubation volume/mg protein added and microsomal protein yield is taken as 52.5 mg protein per g liver. Verapamil (0.5 μM) was used as a positive control to confirm acceptable assay performance. Experiments were performed using a single timecourse experiment.
# All values reported correspond to n of 1.
# Human Liver Hepatocyte (HLH) stability experiments
# Cryopreserved vials of human cryopreserved hepatocytes, supplied by Life Technologies, were thawed according to manufacturer’s instructions and cells resuspended in Williams Medium E (WME) containing cell maintenance supplement pack (CM4000, Life Technologies). Hepatocytes were incubated in suspension (0.5 million cells/mL) in 48 well non-collagen coated cell culture plates for 10 minutes at 37 °C, 5% CO 2. […] The response (area ratio of test compound to internal standard) was plotted against time using an exponential decay model and rate of disappearance calculated. […]
# The half life (T½) of each test compound was determined using the following equation: […]
# [4] = NMR study of isomerisation after incubation in DMSO-d6 for 6 months; type: physicochemical; conditions: 1H NMR integration
# Text: The NOESY spectrum of the mixture indicated no changes in the arrangement of the imine (no correlation was observed between H^11–H^19 or H^11′–H^19′).
# [5] = Topical pharmacokinetic experiment in mice; type: in vivo; conditions: for Mean concentration in blood: female Balb/c mice, topical 10a 1% w/v, n=3, LLoQ = 1 ng/mL, scaled LLoQ 10 ng/mL; for concentration at 2 h / concentration at 8 h: female, Balb/c, mouse, 22.5 µL of 1% w/v 10a; for concentration at 2 h / concentration at 8 h / concentration in blood: mice, topical 22.5 μL of 1% 10a in propylene glycol/ethanol 7/3
# [6] = Metabolite identification in human hepatocytes; type: in vitro ADME; conditions: n = 1
# Text: (§1) Based on the stability of (Z,Z)-9k in DMSO over 28 days (Table 2), it is likely this hydrolysis is enzymatically driven. We then performed metabolite identification studies using (Z,Z)-9k in human hepatocytes to confirm the routes of clearance of our S1PR1 modulators.
# [7] = Glutathione trapping experiment in human liver microsomes; type: in vitro ADME; conditions: 10 µM, 90 minutes
# Procedure: Concentration (ng/mL) Scaled concentration (ng/mL) Mean concentration […]
# Mouse 1 Mouse 2 Mouse 3 Mouse 1 Mouse 2 Mouse 3
# 2h-post application < LLoQ < LLoQ < LLoQ < LLoQ < LLoQ < LLoQ < LLoQ […]
# Mouse 4 Mouse 5 Mouse 6 Mouse 4 Mouse 5 Mouse 6
# 8h-post application < LLoQ < LLoQ < LLoQ < LLoQ < LLoQ < LLoQ < LLoQ […]
# Scaled LLoQ = dilution factor * LLoQ = 10*1 = 10 ng/mL
# Skin concentrations for 10a
# Test compound (10 µM) was incubated with 0.5 mg/mL human liver microsomes (Mixed Gender, Life Technologies) in 50 mM potassium phosphate buffer, pH 7.4 in the presence of either NADPH (8mg/mL) alone, glutathione alone or NADPH plus glutathione. Reactions are initiated by addition of 5 µL of 1 mM test compound (final concentration 10 µM, 1% solvent). Immediately, an aliquot (100 µL) of the incubation mixture was removed and mixed with acetonitrile (200 µL) to stop the reaction. A further 100 µL aliquot is removed at 90 minutes. After addition of 100 µL of water, the samples were centrifuged to sediment precipitated protein and the plates then sealed prior to analysis using a Xevo QTof Quadrupole Time-of-Flight Mass Spectrometer (Waters corporation, USA). Detection of metabolites is performed by analysis with MetabolynxXS and by manual data
# (1 picture or pasted object on this page, not shown here)
# [8] = Metabolite identification in human skin S9 fraction; type: in vitro ADME; conditions: incubation with human skin S9 fraction; n = 1
# Text: as §1
# [9] = set-up: method as in PMID 20089952; conditions: 0.5 mg/day; cited from earlier work
structure (smiles),measurement,setting,value
CCC/N=C1\S/C(=C\c2ccc(O)c(Cl)c2)C(=O)N1c1ccccc1C [Compound 4a],stability (% decrease in purity),[1],6%
CCC/N=C1\S/C(=C\c2ccc(O)c(Cl)c2)C(=O)N1C1CCN(C)C(=O)C1 (stereo not drawn) [Compound 4f],reduction in CHIlogD,[2],3 log units
CCC/N=C1\S/C(=C\c2ccc(O)c(Cl)c2)C(=O)N1c1ccccc1O [Compound 4h],reduction in CHIlogD,[2],1.1 log units
CCC/N=C1\S/C(=C\c2ccc(O)c(Br)c2)C(=O)N1c1ccccc1C [Compound 9f],stability (% decrease in purity),[1],16%
CCC/N=C1\S/C(=C\c2ccc(O)c(C(F)(F)F)c2)C(=O)N1c1ccccc1C [Compound 9g],stability (% decrease in purity),[1],10%
CCC/N=C1\S/C(=C\c2ccc(O)c(C#N)c2)C(=O)N1c1ccccc1C [Compound 9h],H Heps Cl (intrinsic clearance in human liver hepatocytes),"[3]; 0.5 μM test compound, n = 1",<0.5 mL/min/g
same,stability (% decrease in purity),[1],20%
same,impurity (E isomer) share of the mixture,[4],32%
CCC/N=C1\S/C(=C\c2ccc(O)cn2)C(=O)N1c1ccccc1C [Compound 9i],stability (% decrease in purity),[1],4%
CCC/N=C1\S/C(=C\c2ccc(O)cc2)C(=O)N1c1ccccc1C [Compound 9j],isomerization / hydrolysis / chemical instability in DMSO solution (in words),[1],stable over a 28-day period
same,stability (% decrease in purity),[1],0%
CCC/N=C1\S/C(=C\c2ccc(O)c(C)c2)C(=O)N1c1ccccc1C [Compound 9k],hepatic clearance as % liver blood flow,"[3]; corresponds to intrinsic clearance 31 mL/min/g, if good in vitro to in vivo correlation",97 % liver blood flow
same,stability (% decrease in purity),[1],3%
same,Mean concentration in blood,[5]; 2h-post application,< LLoQ
same,Mean concentration in blood,[5]; 8h-post application,< LLoQ
same,concentration at 2 h,"[5]; skin, 2 h, read-out: concentration in the skin",134 µM
same,concentration at 8 h,"[5]; skin, 8 h, read-out: concentration in the skin",101 µM
same,concentration in blood,[5]; 2 h,LLoQ
same,concentration in blood,[5]; 8 h,LLoQ
same,metabolites identified,[6],"glucuronide conjugation product, hydroxylation products, and hydroxylation with sulfation metabolites"
CCC/N=C1\S/C(=C\c2ccc(O)c(C(C)C)c2)C(=O)N1c1ccccc1C [Compound 9l],stability (% decrease in purity),[1],3%
CCC/N=C1\S/C(=C\c2ccc(OC(C)=O)c(C)c2)C(=O)N1c1ccccc1C [Compound 10a],isomerization / hydrolysis / chemical instability in DMSO solution (in words),[1],did not isomerize; also recorded: no hydrolysis or isomerization
same,stability (% decrease),[1],0%
same,Mean concentration in blood,[5]; 2h-post application,< LLoQ
same,Mean concentration in blood,[5]; 8h-post application,< LLoQ
same,concentration at 2 h,"[5]; whole blood, 2 h, read-out: concentrations in blood",8.8 µM
same,concentration at 8 h,"[5]; whole blood, 8 h, read-out: concentrations in blood",4.9 µM
same,concentration in blood,[5]; 2 h,LLoQ
same,concentration in blood,[5]; 8 h,LLoQ
same,glutathione adducts or derivatives,[7],no evidence of glutathione adducts or derivatives was observed
same,metabolites identified,[8],"expected phenol (Z,Z)-9k was obtained after hydrolysis of the ester group: no other metabolites were observed"
CCC/N=C1\S/C(=C\c2ccc(OC(C)=O)c(Br)c2)C(=O)N1c1ccccc1C [Compound 10b],stability (% decrease),[1],6.3%
CCC/N=C1\S/C(=C\c2ccc(OC(C)=O)c(C(F)(F)F)c2)C(=O)N1c1ccccc1C [Compound 10c],stability (% decrease),[1],1.4%
CCC/N=C1\S/C(=C\c2ccc(OC(=O)COC)c(C)c2)C(=O)N1c1ccccc1C [Compound 10d],time within which compound degraded on standing,[1]; heteroatom alpha to the carbonyl of the acetate group,≤ 24 h
CCC/N=C1\S/C(=C\c2ccc(OC(=O)CCO)c(C)c2)C(=O)N1c1ccccc1C [Compound 10f],isomerization / hydrolysis / chemical instability in DMSO solution (in words),[1],did not isomerize; also recorded: instability was not an issue
same,stability (% decrease),[1],0%
CCC/N=C1\S/C(=C\c2ccc(OC(=O)CCOC)c(C)c2)C(=O)N1c1ccccc1C [Compound 10g],isomerization / hydrolysis / chemical instability in DMSO solution (in words),[1],instability was not an issue
CCCCCCCCc1ccc(CCC(N)(CO)CO)cc1 [fingolimod],steady state systemic concentration Cmax,[9],3.1 ng/mL
"CCC/N=C1\S/C(=C\c2ccc(OC[C@H](O)CO)c(Cl)c2)C(=O)N1c1ccccc1C [ponesimod, reference compound]",stability (% decrease),[1],0%
